{"source": "patent US20050002904A1", "about": "“Uses of vascular endothelial growth factor and type I collagen inducible protein (VCIP)” (priority 2003, published 2005)", "key": {"endothelial cells [1]": {"test_system": "endothelial cells", "experiment": "Adhesion blocking assay on GST-VCIP-RGD-coated dishes", "format": "cell-based, human"}, "PAP2b": {"target": "T1, PAP2b (Homo sapiens, UniProt O14495)", "T1 construct": "expressed in transfected cells; host or cells: 293T cells (membrane fraction)", "T1 sequence (O14495 1-311)": "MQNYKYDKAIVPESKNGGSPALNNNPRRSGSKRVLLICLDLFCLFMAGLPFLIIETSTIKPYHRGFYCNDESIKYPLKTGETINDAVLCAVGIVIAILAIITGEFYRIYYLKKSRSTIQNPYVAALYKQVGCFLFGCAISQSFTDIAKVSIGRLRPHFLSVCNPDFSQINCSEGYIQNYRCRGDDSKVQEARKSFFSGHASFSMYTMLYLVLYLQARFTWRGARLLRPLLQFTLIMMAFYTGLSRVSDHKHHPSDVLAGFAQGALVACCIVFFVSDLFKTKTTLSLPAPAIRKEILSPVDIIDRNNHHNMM", "conditions": "membrane fraction of 293T cells over-expressing PAP2b; cited from earlier work"}, "VCIP": {"test_system": "VCIP", "experiment": "VCIP mRNA induction by growth factors and cytokines in monolayer cells", "format": "cell-based, human", "experimental": "FIGS. 1A-M show expression analysis and predicted amino acid sequence of VEGF and type I collagen inducible protein (VCIP). FIG. 1A: HUVECs were embedded into three-dimensional type I collagen gel in the presence of 20% adult human serum, 1× ITS and stimulated with VEGF^165 (100 ng/ml). Total RNA was prepared at the indicated time points. Northern blots were hybridized with a fragment of the VCIP (clone-33A) cDNA probe. The transcript size (3.4 kb) is indicated on the right. The numbers at the bottom of the gel represent the fold increase in VCIP mRNA levels, as compared with untreated cells. […] Total RNA was isolated at indicated time points and subjected to VCIP northern blot analysis. […] FIG. 1E: Poly(A)^+ RNA prepared from various human tissues was subjected to VCIP northern blot analysis by hybridization with the clone-33A cDNA probe. FIG. 1F: The blot shown in FIG. 1E was re-hybridized with a GAPDH probe, showing that equal amounts of RNA were loaded across the lanes. FIG. 1G: Detection of VCIP mRNA by RT-PCR (20 cycles): monolayer endothelial cells were treated for 30 min with: (1) untreated, (2) bFGF (20 ng/ml), (3) VEGF^165 (100 ng/ml), (4) PMA (20 ng/ml), (5) bFGF (20 ng/ml)+VEGF (100 ng/ml), (6) bFGF (20 ng/ml)+PMA (20 ng/ml), (7) VEGF (100 ng/ml)+PMA (20 ng/ml) and (8) bFGF (20 ng/ml)+VEGF (100 ng/ml)+PMA (20 ng/ml). FIGS. 1H-J: RT-PCR analysis of uPAR mRNA (FIG. 1H), β-actin mRNA (FIG. 11) and GAPDH mRNA levels (FIG. 1J) were carried out under the same conditions as described in FIG. 1G. All experiments were repeated at least three times, with similar results. FIG. 1K: Inserts from six recombinant_phage clones are shown, and the relative position of clone 33A is indicated. FIG. 1L: The complete predicted amino acid sequence of VCIP. The putative transmembrane segments are underlined. The N-linked glycosylation site is indicated by an asterisk. The lipid phosphatase catalytic domain is indicated by bold letters and underlined, and the RGD motif is boxed. FIG. 1M: The amino acid sequence of human VCIP (top) is aligned with other proteins containing lipid phosphatase-like catalytic motifs.\nFIGS. 3A-F show VCIP induction by growth factors and cytokines. Indicated monolayer cells were stimulated with various growth factors and cytokines for 6 h in media M199 containing 10% serum+1× ITS. The concentrations of cytokines used were optimized according to their ability to induce Erk2 phosphorylation in western blot analysis: VEGF^165 (100 ng/ml), EGF (20 ng/ml), bFGF (30 ng/ml), TNF-α (15 ng/ml), PMA (10 ng/ml) and IL-1β (25 ng/ml). Total RNA (20 μg per lane) was subjected to northern blot analysis by hybridization with the indicated probes. The uPAR northern blot was included as a control for the cytokines used. Ethidium bromide-stained gels show equal amounts of RNA used (FIGS. 3C and F). Data shown are representative of those obtained in two or three separate experiments.\nVCIP mRNA was most strongly expressed in human heart and placenta, tissues that are highly vascularized (FIG. 1E). Next, expression of VCIP in monolayer endothelial cells treated with bFGF, VEGF and PMA was examined (FIG. 1G). […] This pattern of regulation was identical to that of the human receptor for urokinase plasminogen activator (uPAR) expression (FIG. 1H). β-actin and GAPDH were included as controls and were not regulated under any of these conditions (FIGS. 1I and J).\nTo examine VCIP expression by other cell types, endothelial, smooth muscle and epithelial cells (A431) were stimulated in monolayer with various growth factors and cytokines for 6 h. Total RNA was then isolated and subjected to northern blot analysis for VCIP and uPAR (FIG. 3)."}, "endothelial cells [2]": {"test_system": "endothelial cells", "experiment": "Adhesion of endothelial cells to wells coated with GST fusion proteins", "format": "cell-based, human", "conditions": "pretreatment 20 μg/ml for 1 h and continued exposure", "experimental": "FIG. 10A: Affinity purified GST-fusion proteins were resolved on SDS±PAGE and stained with Coomassie Blue. FIG. 10B: Integrins were immobilized onto 96-well plates, and various GST-fusion proteins (ligands) were allowed to bind. Bound ligands were incubated with anti-GST antibodies, appropriate substrate added and the color intensity measured. OD values <0.05 were considered to be background binding. Data are expressed as mean±SD (n=4). FIG. 10C: Dose-dependent binding of αvβ3 integrin with recombinant GST-VCIP-RGD. FIGS. 10D-F: Representative photomicrographs of adhesion and spreading of endothelial cells replated onto dishes coated with either fibronectin (FIG. 9D), vitronectin (FIG. 9E) or GST-VCIP-RGD (FIG. 9F). […] Attached cells were stained, washed and absorbances of eluted dyes measured. […] Attached cells were stained, washed and absorbances of eluted dyes determined. […] Data are expressed as mean±S.D.; diamond, P<0.01; asterisk, P<0.001. […]\nFor adhesion blocking assays, endothelial cells were detached, washed with PBS and resuspended in M199 media containing 1 mM CaCl2 and 1 mM MgCl2 in the absence of serum or growth factors. […] Absorbances were measured at 540 nm.\nNext, the capacity of VCIP-RGD to bind endothelial cell integrins was evaluated by determining the effect of GST-VCIP fusion proteins on cell adhesion and spreading."}, "[3]": {"test_system": "HEK cells stably expressing pLNCX2-VCIP-RGD (WT)", "experiment": "Cell aggregation of HEK cells stably expressing VCIP constructs (Table 1)", "format": "cell-based", "conditions": "for size, speed of formation and number of cell aggregates: continuous presence, antibody 25-50 μl/ml, peptides 10-50 nM; for % cell aggregates: WT cells, 48 h, mean ± SD", "experimental": "WT cells were also incubated with several peptides modeled after the VCIP-RGD region. When WT cells were cultured in the continuous presence of an anti-VCIP-RGD antibody (25-50 μl/ml) and NYRCRGDDSK (SEQ ID NO:20) (10-50 nM), the size, the speed of formation and the number of such cell aggregates were reduced (Table 1)."}, "[4]": {"conditions": "A431 epidermoid carcinoma cells, 6 h, northern blot"}, "[5]": {"conditions": "monolayer endothelial cells, RT-PCR, 30 min"}}, "note": "Marks after values point to notes of the source that are not given here. Where no end group is shown, it is not given here."}
{"compound": "O=C(O)CN(CCN(CC(=O)O)CC(=O)O)CC(=O)O", "note": "[EDTA, reference compound]", "values": [{"measurement": "detachment of endothelial cells adhered to VCIP", "setting": "endothelial cells [1]; 2.5 mM (pH 7.4) for 5 min", "result": "caused the cells to detach from tissue culture dishes"}]}
{"compound": "CCN1C(=O)C=CC1=O", "note": "[N-ethylmaleimide]", "values": [{"measurement": "effect on phosphatase activity against phosphatidic acid", "setting": "PAP2b", "result": "insensitive"}]}
{"compound": "CCCCCCCCCCCCCC(=O)O[C@@H]1[C@@H](C)[C@@]2(O)[C@@H](C=C(CO)C[C@]3(O)C(=O)C(C)=C[C@@H]23)[C@@H]2C(C)(C)[C@]12OC(C)=O", "note": "[PMA]", "values": [{"measurement": "induction of VCIP expression", "setting": "VCIP; [4]", "result": "strongly induced"}, {"measurement": "induction of VCIP expression", "setting": "VCIP; AoSMC, 6 h, northern blot", "result": "did not"}, {"measurement": "induction of VCIP expression", "setting": "VCIP; CASMCs, 6 h, northern blot", "result": "Neither PMA nor VEGF^165 induced expression of VCIP"}, {"measurement": "induction of VCIP expression", "setting": "VCIP; [5]", "result": "equally able to induce expression of VCIP"}]}
{"compound": "C[C@@H]1C[C@@H]([C@H](O)CC2CC(=O)NC(=O)C2)C(=O)[C@@H](C)C1", "note": "[cycloheximide, reference compound]", "values": [{"measurement": "total number of attached cells", "setting": "endothelial cells [2]", "result": "did not decrease the total number of attached cells"}]}
{"compound": "CC(C)NCC(O)COc1cccc2ccccc12", "note": "(centres unmarked) [propranolol]", "values": [{"measurement": "effect on phosphatase activity against phosphatidic acid", "setting": "PAP2b", "result": "blocked"}]}
{"compound": "CCCCCCCCCCCCC/C=C/[C@@H](O)[C@@H](N)CO", "note": "[sphingosine]", "values": [{"measurement": "effect on phosphatase activity against phosphatidic acid", "setting": "PAP2b", "result": "blocked"}]}
{"compound": "NYRCRADDSK (CHAIN a peptide containing a mutated RGD sequence)", "values": [{"measurement": "size, speed of formation and number of cell aggregates", "setting": "[3]", "result": "no reduction in cell aggregation"}, {"measurement": "% cell aggregates", "setting": "[3]; substance 10 nM", "result": "92 ± 5.7", "unit": "%"}, {"measurement": "% cell aggregates", "setting": "[3]; substance 30 nM", "result": "89 ± 7.5", "unit": "%"}, {"measurement": "% cell aggregates", "setting": "[3]; substance 50 nM", "result": "90 ± 7.2^a %"}]}
{"compound": "NYRCRGDDSK (CHAIN a peptide containing RGD sequence)", "values": [{"measurement": "size, speed of formation and number of cell aggregates", "setting": "[3]", "result": "reduced"}, {"measurement": "% cell aggregates", "setting": "[3]; substance 10 nM", "result": "67 ± 15.7", "unit": "%"}, {"measurement": "% cell aggregates", "setting": "[3]; substance 30 nM", "result": "46 ± 13.3", "unit": "%"}, {"measurement": "% cell aggregates", "setting": "[3]; substance 50 nM", "result": "28 ± 10.5^a %"}]}
{"compound": "NYRCRGDDSKVQE (also: acetylated) [acetylated NYRCRGDDSKVQE (VCIP-RGD)]", "values": [{"measurement": "detachment of attached cells from VCIP-RGD-coated wells", "setting": "endothelial cells [1]; 5 nM", "result": "eventually completely detached from the wells"}, {"measurement": "time until attached cells rounded up", "setting": "endothelial cells [1]; 5 nM, cells plated on VCIP-RGD-coated wells", "result": "≤ 5", "unit": "min"}]}
{"compound": "NYRCRGEDSK (CHAIN a peptide containing a mutated RGD sequence)", "values": [{"measurement": "size, speed of formation and number of cell aggregates", "setting": "[3]", "result": "no reduction in cell aggregation"}]}
{"compound": "TNF-α", "values": [{"measurement": "induction of VCIP expression", "setting": "VCIP; [4]", "result": "had no effect"}]}
{"compound": "bFGF: Basic Fibroblast growth factor", "values": [{"measurement": "induction of VCIP expression", "setting": "VCIP; [4]", "result": "had no effect"}, {"measurement": "induction of VCIP expression", "setting": "VCIP; [5]", "result": "equally able to induce expression of VCIP"}]}
